Test results reported in patent US20060069132A1, “Azolecarboxamide herbicides” (priority 2004, published 2006).

How the values were obtained:
winter barley = experiment: Test C postemergence herbicide test; assay type: in vivo, Hordeum vulgare
Outline: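 Ratings (0 = no effect, 100 = complete control) come from visual comparison with untreated plants after 12 to 14 days in the greenhouse. Treatment was postemergence at the 1- to 4-leaf stage (2–18 cm), or at the 2-leaf stage for the flooded paddy barnyardgrass.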

lambsquarters = experiment: Test B pre-/postemergence herbicide test; assay type: in vivo, Chenopodium album
Outline: (§1)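 Seeds were planted and treated preemergence with compounds formulated in a non-phytotoxic solvent mixture containing surfactant, while plants at the 1- to 4-leaf stage (2 to 18 cm) received postemergence sprays. Flooded paddy plants were grown to the 2-leaf stage. After 13 to 15 days in a greenhouse, injury was visually rated 0–100 against untreated controls.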

cocklebur = experiment: Test B pre-/postemergence herbicide test; assay type: in vivo, Xanthium strumarium
Outline: (§2)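 Visual rating, 0 (no effect) to 100 (complete control), versus untreated controls after 13–15 d in greenhouse. Pre- and postemergence applications (postemergence plants 2–18 cm, 1–4 leaves); flooded paddy arm at 2-leaf stage. Compounds in non-phytotoxic solvent plus surfactant.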

pigweed = experiment: Test B pre-/postemergence herbicide test; assay type: in vivo, Amaranthus retroflexus
Outline: as §1

large crabgrass = experiment: Test B pre-/postemergence herbicide test; assay type: in vivo, Digitaria sanguinalis
Outline: as §1

wild oat [1] = experiment: Test B postemergence herbicide test; assay type: in vivo, Avena fatua
Outline: (§3)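 Formulated test chemicals went onto postemergence plants measuring 2 to 18 cm, at one to four leaves. For the paddy assay, species had reached two leaves. Scoring took place 13–15 days later by eye, relative to untreated plants, using 0 for no effect up to 100 for full control.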

barnyardgrass [2] = experiment: Test B flooded paddy test; assay type: in vivo, Echinochloa crus-galli; conditions: 1000 g ai/ha, scale 0 to 100 (0 no effect, 100 complete control)
Outline: (§4)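 Visual ratings, 0 (no effect) to 100 (complete control), made versus controls after 13–15 d greenhouse. Paddy plants treated at 2-leaf stage; postemergence plants at 1- to 4-leaf stage, 2–18 cm tall.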

blackgrass [3] = experiment: Test B postemergence herbicide test; assay type: in vivo, Alopecurus myosuroides
Outline: as §4

velvetleaf = experiment: Test B pre-/postemergence herbicide test; assay type: in vivo, Abutilon theophrasti
Outline: as §1

wheat [4] = experiment: Test C postemergence herbicide test; assay type: in vivo, Triticum aestivum; conditions: postemergence, scale 0 to 100
Outline: (§5)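 Greenhouse test with a 12–14 day hold after application and visual comparison with controls. Emerged plants were 1- to 4-leaf stage (2–18 cm) when sprayed postemergence, and the paddy barnyardgrass was at 2 leaves under flooded conditions. 100 = complete control.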

Italian ryegrass = experiment: Test C postemergence herbicide test; assay type: in vivo, Lolium multiflorum; conditions: postemergence, scale 0 to 100
Outline: as §5

downy bromegrass = experiment: Test C postemergence herbicide test; assay type: in vivo, Bromus tectorum
Outline: as §5

windgrass = experiment: Test C postemergence herbicide test; assay type: in vivo, Apera spica-venti; conditions: postemergence, scale 0 to 100
Outline: as §5

[5] = system: small flower umbrella sedge; experiment: Test B flooded paddy test; assay type: in vivo, Cyperus difformis; conditions: 1000 g ai/ha, scale 0 to 100 (0 no effect, 100 complete control)
Outline: as §4

green foxtail = experiment: Test C postemergence herbicide test; assay type: in vivo, Setaria viridis
Outline: as §5

barnyardgrass [6] = experiment: Test B pre-/postemergence herbicide test; assay type: in vivo, Echinochloa crus-galli; conditions: for Barnyardgrass plant response rating: Postemergence, scale 0 (no effect) to 100 (complete control)
Outline: as §2

wheat [7] = experiment: Test B postemergence herbicide test; assay type: in vivo, Triticum aestivum; parameters: key to Wheat plant response rating: 0 = no effect, 100 = complete control
Outline: as §3

morningglory = experiment: Test B pre-/postemergence herbicide test; assay type: in vivo, Ipomoea coccinea
Outline: as §2

corn = experiment: Test B pre-/postemergence herbicide test; assay type: in vivo, Zea mays
Outline: as §1

wild oat [8] = experiment: Test C postemergence herbicide test; assay type: in vivo, Avenafatua; conditions: postemergence, scale 0 to 100
Outline: as §5

ducksalad = experiment: Test B flooded paddy test; assay type: in vivo, Heteranthera limosa; conditions: 1000 g ai/ha, scale 0 to 100 (0 no effect, 100 complete control)
Outline: as §4

rice = experiment: Test B flooded paddy test; assay type: in vivo, Oryza sativa; conditions: 1000 g ai/ha, scale 0 to 100 (0 no effect, 100 complete control)
Outline: as §4

blackgrass [9] = experiment: Test C postemergence herbicide test; assay type: in vivo, Alopecurus myosuroides
Outline: as §5

giant foxtail = experiment: Test B pre-/postemergence herbicide test; assay type: in vivo, Setaria faberi
Outline: as §1

canarygrass = experiment: Test C postemergence herbicide test; assay type: in vivo, Phalaris minor
Outline: as §5

Surinam grass = experiment: Test B pre-/postemergence herbicide test; assay type: in vivo, Urochloa decumbens
Outline: as §1

[10] = Postemergence, 250 g ai/ha, scale 0 to 100, 0 no effect, 100 complete control
[11] = postemergence, 31 g ai/ha, scale 0 to 100
[12] = 125 g ai/ha, 0 is no effect, 100 is complete control, preemergence
[13] = Postemergence, 500 g ai/ha, scale 0 (no effect) to 100 (complete control)
[14] = postemergence, 125 g ai/ha, scale 0 to 100
[15] = postemergence, 62 g ai/ha, scale 0 to 100

SMILES: C=CCNC(=O)c1ccc(F)c(NC(=O)c2cc(C(C)(C)C)nn2CC)c1 [Compound 430]
- Plant response rating, Barley, Winter (winter barley; Postemergence, 125 g ai/ha, scale 0 to 100, 0 no effect, 100 complete control): 35
- Plant response rating, Barley, Winter (winter barley; [10]): 45
- Plant response rating, Barley, Winter (winter barley; [11]): 25
- Plant response rating, Barley, Winter (winter barley; postemergence, 62 g ai/ha, scale 0 to 100 (0 no effect, 100 complete control)): 30
- Plant response rating (0 to 100 scale), Lambsquarters (lambsquarters; [12]): 100
- Lambsquarters plant response rating (lambsquarters; [13]): 80
- Lambsquarters plant response rating (lambsquarters; [14]): 60
- Plant response rating (0 to 100 scale), Cocklebur (cocklebur; [12]): 10
- Cocklebur plant response rating (cocklebur; [13]): 90
- Cocklebur plant response rating (cocklebur; [14]): 60
- Plant response rating (0 to 100 scale), Pigweed (pigweed; [12]): 100
- Pigweed plant response rating (pigweed; [13]): 80
- Pigweed plant response rating (pigweed; [14]): 60
- Plant response rating (0 to 100 scale), Crabgrass, Large (large crabgrass; [12]): 100
- Crabgrass, Large plant response rating (large crabgrass; [13]): 50
- Crabgrass, Large plant response rating (large crabgrass; [14]): 30
- Oat, Wild plant response rating (wild oat [1]; [13]): 50
- Oat, Wild plant response rating (wild oat [1]; [14]): 40
- Barnyardgrass plant response rating (barnyardgrass [2]): 80
- Blackgrass plant response rating (blackgrass [3]; [13]): 70
- Blackgrass plant response rating (blackgrass [3]; [14]): 40
- Plant response rating (0 to 100 scale), Velvetleaf (velvetleaf; [12]): 40
- Velvetleaf plant response rating (velvetleaf; [13]): 80
- Velvetleaf plant response rating (velvetleaf; [14]): 60
- Plant response rating, Wheat (wheat [4]; 125 g ai/ha): 50
- Plant response rating, Wheat (wheat [4]; 62 g ai/ha): 45
- Plant response rating, Ryegrass, Italian (Italian ryegrass; 125 g ai/ha): 60
- Plant response rating, Ryegrass, Italian (Italian ryegrass; 62 g ai/ha): 55
- Plant response rating, Bromegrass, Downy (downy bromegrass; [10]): 55
- Plant response rating, Bromegrass, Downy (downy bromegrass; [14]): 50
- Plant response rating, Bromegrass, Downy (downy bromegrass; [11]): 45
- Plant response rating, Bromegrass, Downy (downy bromegrass; [15]): 45
- Plant response rating, Windgrass (windgrass; 125 g ai/ha): 45
- Plant response rating, Windgrass (windgrass; 62 g ai/ha): 35
- Sedge, Umbrella plant response rating [5]: 80
- Plant response rating, Foxtail, Green (green foxtail; [10]): 60
- Plant response rating, Foxtail, Green (green foxtail; [14]): 50
- Plant response rating, Foxtail, Green (green foxtail; [15]): 45
- Plant response rating (0 to 100 scale), Barnyardgrass (barnyardgrass [6]; [12]): 90
- Barnyardgrass plant response rating (barnyardgrass [6]; 125 g ai/ha): 30
- Barnyardgrass plant response rating (barnyardgrass [6]; 500 g ai/ha): 50
- Wheat plant response rating (wheat [7]; 500 g ai/ha, scale 0 to 100, 0 no effect, 100 complete control, preemergence): 100
- Wheat plant response rating (wheat [7]; [13]): 40
- Wheat plant response rating (wheat [7]; [14]): 30
- Plant response rating (0 to 100 scale), Morningglory (morningglory; [12]): 20
- Morningglory plant response rating (morningglory; [13]): 70
- Morningglory plant response rating (morningglory; [14]): 60
- Plant response rating (0 to 100 scale), Corn (corn; [12]): 50
- Corn plant response rating (corn; [13]): 40
- Corn plant response rating (corn; [14]): 20
- Plant response rating, Oat, Wild (wild oat [8]; 125 g ai/ha): 60
- Plant response rating, Oat, Wild (wild oat [8]; 62 g ai/ha): 55
- Ducksalad plant response rating (ducksalad): 80
- Rice plant response rating (rice): 60
- Plant response rating, Blackgrass (blackgrass [9]; [10]): 65
- Plant response rating, Blackgrass (blackgrass [9]; [14]): 55
- Plant response rating, Blackgrass (blackgrass [9]; [11]): 45
- Plant response rating, Blackgrass (blackgrass [9]; [15]): 50
- Plant response rating (0 to 100 scale), Foxtail, Giant (giant foxtail; [12]): 90
- Foxtail, Giant plant response rating (giant foxtail; [13]): 40
- Foxtail, Giant plant response rating (giant foxtail; [14]): 30
- Plant response rating, Canarygrass (canarygrass; [10]): 60
- Plant response rating, Canarygrass (canarygrass; [14]): 50
- Plant response rating, Canarygrass (canarygrass; [11]): 30
- Plant response rating, Canarygrass (canarygrass; [15]): 40
- Plant response rating (0 to 100 scale), Surinam Grass (Surinam grass; [12]): 80
- Surinam Grass plant response rating (Surinam grass; [13]): 40
- Surinam Grass plant response rating (Surinam grass; [14]): 30
